Assay results from US12215093B2, “Bicyclic carboxamides and methods of use thereof” (Tempest Therapeutics, Inc., priority 2018, dated 2025).

How the values were obtained:
EP2 = EP2 (Homo sapiens, UniProt P43116);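 note: functional calcium flux assay in stably transfected HEK293 cells expressing EP2 coupled via a promiscuous G protein, clytin luminescence read as area under the curve, 30 min compound preincubation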
EP4 = target: T1, EP4 (Homo sapiens, UniProt P35408); assay: Functional calcium flux assay, EP4; type: cell-based; conditions: stably transfected HEK293 cells; PGE2 10 nM; read-out: EP4 Ca2+-flux assay IC50
T1 construct: host or cells: stably transfected HEK293 cells co-expressing a promiscuous G protein and a clytin variant
T1 sequence (P35408 whole entry): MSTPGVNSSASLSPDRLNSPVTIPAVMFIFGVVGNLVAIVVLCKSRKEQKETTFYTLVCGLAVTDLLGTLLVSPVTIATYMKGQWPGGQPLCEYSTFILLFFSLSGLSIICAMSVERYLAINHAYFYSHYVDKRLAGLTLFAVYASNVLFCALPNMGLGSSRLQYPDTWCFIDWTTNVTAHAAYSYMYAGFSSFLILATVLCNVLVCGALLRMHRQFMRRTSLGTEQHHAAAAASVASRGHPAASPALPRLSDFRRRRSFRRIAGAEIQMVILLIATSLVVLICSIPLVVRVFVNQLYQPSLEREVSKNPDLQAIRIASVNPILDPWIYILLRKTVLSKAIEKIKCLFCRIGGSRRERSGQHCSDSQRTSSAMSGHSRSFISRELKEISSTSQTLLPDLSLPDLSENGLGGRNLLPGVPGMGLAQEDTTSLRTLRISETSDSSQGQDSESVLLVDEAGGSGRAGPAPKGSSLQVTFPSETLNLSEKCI
Protocol: Each receptor subtype has an additional promiscuous G protein added in order to couple the aforementioned receptor to the calcium signaling pathway. The parental cell line used also expresses a novel variant of clytin, a calcium-activated photo-protein, to enable sensitive luminescent detection. Briefly, cells were plated at 50,000 cells-per-well in black, clear bottom 96-well plates. The plated cells were allowed to sit at room temperature for 30 min prior to transferring to a humidified, 37° C., 5% CO2 incubator for 18 to 24 h. Assay buffer (HBSS with 20 mM HEPES) and loading buffer (assay buffer plus 10 μM coelenterazine) were prepared on the day of the assay. Assays were performed by aspirating media from the assay plate and washing once with assay buffer, then replacing with loading buffer and allowing the cells to incubate for 1.5 h at room temperature. Compounds were prepared in assay buffer at a 3× final concentration in non-binding plates. Compounds were added to the cell plates and incubated for 30 min at room temperature. The prostanoid receptor ligand PGE2 was prepared at a 4× dilution ratio for a final concentration of 10 nM. Plates were run on a Flexstation™ using a 100 ms integration luminescence protocol for a total of 60 sec with ligand addition at 15 sec. Data were obtained from relative light units as measured by area under the curve.

EP2, sequence (P43116 whole entry): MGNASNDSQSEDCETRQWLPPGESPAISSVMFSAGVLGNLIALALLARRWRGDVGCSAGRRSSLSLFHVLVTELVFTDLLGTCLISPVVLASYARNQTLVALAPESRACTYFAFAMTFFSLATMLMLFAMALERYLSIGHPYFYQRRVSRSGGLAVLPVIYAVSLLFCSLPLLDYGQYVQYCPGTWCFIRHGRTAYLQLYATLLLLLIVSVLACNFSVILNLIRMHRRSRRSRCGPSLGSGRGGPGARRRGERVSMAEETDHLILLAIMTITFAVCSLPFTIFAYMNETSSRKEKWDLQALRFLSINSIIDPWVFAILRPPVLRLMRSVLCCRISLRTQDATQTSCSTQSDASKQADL

| SMILES | IC50 (EP2) [nM] | IC50 (EP4) [nM] |
| --- | --- | --- |
| CN(C)c1cc(-c2ccc(Cn3ccc4c(F)ccc(C(=O)NC5CC6(C5)CC(C(=O)O)C6)c43)cc2)ccn1 (stereo not drawn) [Example 22, 6-(1-(4-(2-(dimethylamino)pyridin-4-yl)benzyl)-4-fluoro-1H-indole-7-carboxamido)spiro[3.3]heptane-2-carboxylic acid] | 78 | < 1 |
| O=C(O)CC1CC2(C1)CC(NC(=O)c1cc(Cl)cc3cnn(Cc4ccc(-c5ccccc5)c(F)c4)c13)C2 (stereo not drawn) [Example 152, (Sa)-2-(6-(5-Chloro-1-((2-fluoro-[1,1′-biphenyl]-4-yl)methyl)-1H-indazole-7-carboxamido)spiro[3.3]heptan-2-yl)acetic acid] | 49 | < 1 |
| COc1cccc(-c2ccc(Cn3ncc4c(Cl)ccc(C(=O)NC5CC6(CC(CC(=O)O)C6)C5)c43)cc2)n1 [Example 149, (R)-2-(6-(4-Chloro-1-(4-(6-methoxypyridin-2-yl)benzyl)-1H-indazole-7-carboxamido)spiro[3.3]heptan-2-yl)acetic acid] | 38 | < 1 |
| COc1cc(C#N)cc(-c2ccc(Cn3ccc4c(F)ccc(C(=O)NC5CC6(C5)CC(C(=O)O)C6)c43)cc2)c1 (stereo not drawn) [Example 49, (Sa)-6-(1-((3’-cyano-5’-methoxy-[1,1′-biphenyl]-4-yl)methyl)-4-fluoro-1H-indole-7-carboxamido)spiro[3.3]heptane-2-carboxylic acid] | < 25 | < 1 |
| CC(c1ccc(-c2ccccc2)cc1)n1ccc2c(F)ccc(C(=O)NC3CC4(C3)CC(C(=O)O)C4)c21 (racemic) [Example 116, (S)-6-(1-(racemic)-1-([1,1′-biphenyl]-4-yl)-ethyl)-4-fluoro-1H-indole-7-carboxamido)spiro[3.3]heptane-2-carboxylic acid] | < 25 | 2.8 |
| O=C(NC1CC2(C1)CC(C(=O)O)C2)c1ccc(F)c2ccn(Cc3ccc4cc(Br)ccc4c3)c12 (stereo not drawn) [Example 42, (Sa)-6-(1-((6-bromonaphthalen-2-yl)methyl)-4-fluoro-1H-indole-7-carboxamido)spiro[3.3]heptane-2-carboxylic acid] | 37 | < 1 |
| O=C(O)CC1CC2(C1)CC(NC(=O)c1ccc(OC(F)F)c3cnn(Cc4ccc(-c5ccccc5)cc4)c13)C2 (stereo not drawn) [Example 162, (Ra)-2-(6-(1-([1,1′-Biphenyl]-4-ylmethyl)-4-(difluoromethoxy)-1H-indazole-7-carboxamido)spiro[3.3]heptan-2-yl)acetic acid] | 52 | 1.2 |
| CC(c1ccc(-c2ccccc2)cc1)n1ncc2cc(Cl)cc(C(=O)NC3CC4(C3)CC(C(=O)O)C4)c21 (racemic) [Example 173, (Sa)-6-(1-((racemic)1-([1,1′-Biphenyl]-4-yl)ethyl)-5-chloro-1H-indazole-7-carboxamido)spiro[3.3]heptane-2-carboxylic acid] | < 25 | 7.2 |
| CCOc1cccc(-c2ccc(C(C)n3ncc4c(Cl)ccc(C(=O)NC5CC6(C5)CC(C(=O)O)C6)c43)cc2)n1 (racemic) [Example 134, (Sa)-6-(4-chloro-1-((racemic)-1-(4-(6-ethoxypyridin-2-yl)phenyl)-ethyl)-1H-indazole-7-carboxamido)spiro[3.3]heptane-2-carboxylic acid] | < 25 | 1.3 |
| COc1cccc(-c2ccc(C(C)n3ncc4cccc(C(=O)NC5CC6(C5)CC(C(=O)O)C6)c43)cc2)c1 (racemic) [Example 113, (Sa)-6-(1-((racemic)-1-(3′-methoxy-[1,1′-bipheny]-4-yl)-ethyl)-1H-indazole-7-carboxamido)spiro[3.3]heptane-2-carboxylic acid] | < 25 | 1.3 |
| COc1cc(C#N)cc(-c2ccc(C(C)n3ncc4cccc(C(=O)NC5CC6(C5)CC(C(=O)O)C6)c43)cc2)c1 (racemic) [Example 114, (Sa)-6-(1-((racemic)-1-(3′-cyano-5′-methoxy-[1,1′-biphenyl]-4-yl)-ethyl)-1H-indazole-7-carboxamido)spiro[3.3]heptane-2-carboxylic acid] | 57 | 5.5 |
| COc1ccc(-c2ccc(Cn3ccc4c(F)ccc(C(=O)NC5CC6(C5)CC(C(=O)O)C6)c43)cc2)cc1 (stereo not drawn) [Example 51, (Sa)-6-(4-fluoro-1-((4’-methoxy-[1,1′-biphenyl]-4-yl)methyl)-1H-indole-7-carboxamido)spiro[3.3]heptane-2-carboxylic acid] | < 25 | < 1 |
| CCOc1cc(-c2ccc(Cn3ccc4c(OC)ncc(C(=O)NC5CC6(C5)CC(C(=O)O)C6)c43)cc2)ccn1 (stereo not drawn) [Example 89, (Sa)-6-(1-(4-(2-ethoxypyridin-4-yl)benzyl)-4-methoxy-1H-pyrrolo[3,2-c]pyridine-7-carboxamido)spiro[3.3]heptane-2-carboxylic acid] | 97 | 1.3 |
| CCOc1ccc(-c2ccc(Cn3ccc4c(OC)ncc(C(=O)NC5CC6(C5)CC(C(=O)O)C6)c43)cc2)cn1 (stereo not drawn) [Example 91, (Sa)-6-(1-(4-(6-ethoxypyridin-3-yl)benzyl)-4-methoxy-1H-pyrrolo[3,2-c]pyridine-7-carboxamido)spiro[3.3]heptane-2-carboxylic acid] | 59 | < 1 |
| O=C(O)CC1CC2(C1)CC(NC(=O)c1ccc(Cl)c3cnn(Cc4ccc(-c5ccccc5F)cc4)c13)C2 (stereo not drawn) [Example 143, (Ra)-2-(6-(4-Chloro-1-((2′-fluoro-[1,1′-biphenyl]-4-yl)methyl)-1H-indazole-7-carboxamido)spiro[3.3]heptan-2-yl)acetic acid] | 35 | < 1 |
| CCOc1ncc(C(=O)NC2CC3(C2)CC(C(=O)O)C3)c2c1ccn2Cc1ccc(-c2ccccc2)cc1 (stereo not drawn) [Example 90, (Sa)-6-(1-([1,1′-biphenyl]-4-ylmethyl)-4-ethoxy-1H-pyrrolo[3,2-c]pyridine-7-carboxamido)spiro[3.3]heptane-2-carboxylic acid] | 57 | < 1 |
| O=C(NC1CC2(C1)CC(C(=O)O)C2)c1ccc(F)c2ccn(Cc3ccc(-c4ccnc(C(F)F)c4)cc3)c12 (stereo not drawn) [Example 64, (Sa)-6-(1-(4-(2-(difluoromethyl)pyridin-4-yl)benzyl)-4-fluoro-1H-indole-7-carboxamido)spiro[3.3]heptane-2-carboxylic acid] | 48 | < 1 |
| CCOc1nccc(-c2ccc(Cn3ccc4c(F)ccc(C(=O)NC5CC6(C5)CC(C(=O)O)C6)c43)cc2)n1 (stereo not drawn) [Example 58, (Sa)-6-(1-(4-(2-ethoxypyrimidin-4-yl)benzyl)-4-fluoro-1H-indole-7-carboxamido)spiro[3.3]heptane-2-carboxylic acid] | 95 | 2.4 |
| O=C(O)CC1CC2(C1)CC(NC(=O)c1cc(OC(F)F)cc3cnn(Cc4ccc(-c5ccccc5)cc4)c13)C2 (stereo not drawn) [Example 165, (Ra)-2-(6-(1-([1,1′-Biphenyl]-4-ylmethyl)-5-(difluoromethoxy)-1H-indazole-7-carboxamido)spiro[3.3]heptan-2-yl)acetic acid] | < 25 | 1 |
| CCOc1cc(-c2ccc(C(C)n3ccc4c(F)ccc(C(=O)NC5CC6(C5)CC(C(=O)O)C6)c43)cc2)ccn1 (single isomer, unassigned) [Example 129, (Sa)-6-(1-((R) or (S)-1-(4-(2-ethoxypyridin-4-yl)phenyl)-ethyl)-4-fluoro-1H-indole-7-carboxamido)spiro[3.3]heptane-2-carboxylic acid] | 61 | 3 |
| O=C(NC1CC2(C1)CC(C(=O)O)C2)c1ccc(F)c2ccn(Cc3ccc(-c4cccc(OC5COC5)c4)cc3)c12 (stereo not drawn) [Example 57, (Sa)-6-(4-fluoro-1-((3′-(oxetane-3-yloxy)-[1,1′-biphenyl]-4-yl)methyl)-1H-indole-7-carboxamido)spiro[3.3]heptane-2-carboxylic acid] | 99 | < 1 |
| CCOc1cc(-c2ccc(C(C)n3ncc4c(Cl)ccc(C(=O)NC5CC6(C5)CC(C(=O)O)C6)c43)cc2)ccn1 (single isomer, unassigned) [Example 131, (Sa)-6-(4-chloro-1-((R) or (S)-1-(4-(2-ethoxypyridin-4-yl)phenyl)-ethyl)-1H-indazole-7-carboxamido)spiro[3.3]heptane-2-carboxylic acid] | < 25 | < 1 |
| COc1cc(-c2ccc(Cn3ccc4c(F)ccc(C(=O)NC5CC6(CC(CC(=O)O)C6)C5)c43)cc2)ccn1 (stereo not drawn) [Example 139, (Ra)-2-(6-(4-Fluoro-1-(4-(2-methoxypyridin-4-yl)benzyl)-1H-indole-7-carboxamido)spiro[3.3]heptan-2-yl)acetic acid] | < 25 | < 1 |
| O=C(NC1CC2(C1)CC(C(=O)O)C2)c1ccc(Cl)c2cnn(Cc3ccc(-c4cccc(OC(F)(F)F)n4)cc3)c12 (stereo not drawn) [Example 86] | 36 | 1.8 |
| O=C(NC1CC2(C1)CC(C(=O)O)C2)c1ccc(Cl)c2cnn(Cc3ccc(OC(F)(F)F)cc3)c12 (stereo not drawn) [Example 95, (Sa)-6-(4-chloro-1-(4-(trifluoromethoxy)benzyl)-1H-indazole-7-carboxamido)spiro[3.3]heptane-2-carboxylic acid] | 83 | 9 |
| COc1cccc(-c2ccc(C(C)n3ccc4c(F)ccc(C(=O)NC5CC6(C5)CC(C(=O)O)C6)c43)cc2)c1 (racemic) [Example 117, (Sa)-6-(4-fluoro-1-((racemic)-1-(3′-methoxy-[1,1′-biphenyl]-4-yl)-ethyl)-1H-indole-7-carboxamido)spiro[3.3]heptane-2-carboxylic acid] | 87 | 14 |
| N#Cc1ccc(-c2ccc(Cn3ncc4c(Cl)ccc(C(=O)NC5CC6(CC(CC(=O)O)C6)C5)c43)cc2)cc1 (stereo not drawn) [Example 145, (Ra)-2-(6-(4-Chloro-1-((4′-cyano-[1,1′-biphenyl]-4-yl)methyl)-1H-indazole-7-carboxamido)spiro[3.3]heptan-2-yl)acetic acid] | – | < 1 |
| O=C(NC1CC2(C1)CC(C(=O)O)C2)c1ccc(Cl)c2ccn(Cc3ccc(-c4ccncc4)cc3)c12 (stereo not drawn) [Example 67, (Sa)-6-(4-Chloro-1-(4-(pyridin-4-yl)benzyl)-1H-indole-7-carboxamido)spiro[3.3]heptane-2-carboxylic acid] | – | 6.6 |
